Patent US12098217B2, “Fusion peptides as antimicrobial agents” (CENTRE NATIONAL DE LA RECHERCHE SCIENTIFIQUE, priority 2019, dated 2024)
In brackets after ≈: the same amount, converted by molar mass. Read-outs that look alike come from different tables or passages of the source.

Tested on: E. coli D22 strain
Assay: microbe, parasite or virus in culture
Type: cell-based
Conditions: for MBC: E. coli D22, decrease of at least 99.9% of cell viability
Description: E. coli strain D22 (F-, IpxC101, proA23, lac-28, tsx-81, trp-30, his-51, tufA1, rpsL173(strR), ampCp-1 was purchased at E. coli Genetic Stock Center (Yale University) and used in the determination of MIC and in the peptide penetration assays. E. coli ATCC23724 cells were used to infect D. melanogaster flies. 70S ribosomes were purified from the E. coli MRE600 strain (Accession AY140951) and BL21 (DE3) pLys strain was used for production of the DnaN protein.
E. coli strains were cultivated on either agar or liquid 1× Mueller Hinton broth unless specified. MIC assays were performed in duplicate in 96-well microtiter plates on the basis of the protocol recommended by the Clinical and Laboratory Standards Institute. Briefly, a mix of 5-6 fresh (less than 36 hours) colonies grown on MH agar plates were inoculated in 3 ml of MH broth and incubated for about 16 h at 37° C. under agitation. 30 μl of this saturated culture were inoculated in 3 ml of fresh medium and allowed to grow until OD600 nm of about 0.6-0.8. Dilution to an OD600 nm of 0.002 was made in MH broth. Within a time laps not exceeding 30 min, 50 μl of this cell suspension was added to 50 μl of MH broth (containing or not the peptide/antibiotic diluted in MH broth) in wells of a 96-well round bottom microwell plate (Greiner; final cell density about 2 to 5×10^5 cfu/ml). Plates were incubated at 37° C. for 18-24 h and final turbidity of each well was measured at 620 nm using a Multiskan FC microplate reader (Thermo Scientific). MIC was defined as the minimal antibiotic concentration that result in no increase of turbidity at that time. Each MIC determination was performed in duplicate and at least in two independent experiments. Plating of 75 μl of the content of the wells of interest on LB Agar plates was used to determine the MBC that is defined by a decrease of at least 99.9% of cell viability as compared to the number of viable cells in the inoculum (about 2 to 5×10^4 cfu).

[1] = E. coli D22, Mueller Hinton broth, range of at least 2 independent experiments

Structure (SMILES) | MIC (Escherichia coli, D22STRAIN, E. coli D22, Mueller Hinton broth, range of at least 2 independent experiments, read-out: MIC) [µM] | MIC (Escherichia coli, D22STRAIN, E. coli D22, Mueller Hinton broth, range of at least 2 independent experiments, read-out: MIC (μg/ml)) [µg/mL] | MBC (Escherichia coli, D22STRAIN, read-out: MBC) [µg/mL] | MIC (μM) [1] [µM] | MIC (μg/ml) [1] [µg/mL] | MBC [µg/mL]
CC1(C)S[C@@H]2[C@H](NC(=O)[C@H](N)c3ccccc3)C(=O)N2[C@H]1C(=O)O [Ampicillin, reference compound] | 22.9 to 45.8 | 8 to 16 | 16 (≈ 45.8 µM) | – | – | –
CN(C)[C@@H]1C(=O)C(C(N)=O)=C(O)[C@@]2(O)C(=O)C3=C(O)c4c(O)cccc4[C@@](C)(O)[C@H]3C[C@@H]12 [Tetracyclin, reference compound] | – | – | – | 0.56 to 1.12 | 0.25 to 0.5 | 0.5 (≈ 1.13 µM)
